We go through 20 compounds from article PMC6009903, “Synthesis, biological activity and multiscale molecular modeling studies for coumaryl-carboxamide derivatives as selective carbonic anhydrase IX inhibitors” (Journal of Enzyme Inhibition and Medicinal Chemistry, 2017).

The target in one series is hCA I (Homo sapiens, UniProt P00915). Description: CA inhibition assay, stopped-flow CO2 hydration.
In another series the target is hCA IX (Homo sapiens, UniProt Q16790). Description: CA inhibition assay, stopped-flow CO2 hydration.
The target of a further series is hCA VII (Homo sapiens, UniProt P43166). Description: CA inhibition assay, stopped-flow CO2 hydration.
Chain of hCA VII (P43166 whole entry): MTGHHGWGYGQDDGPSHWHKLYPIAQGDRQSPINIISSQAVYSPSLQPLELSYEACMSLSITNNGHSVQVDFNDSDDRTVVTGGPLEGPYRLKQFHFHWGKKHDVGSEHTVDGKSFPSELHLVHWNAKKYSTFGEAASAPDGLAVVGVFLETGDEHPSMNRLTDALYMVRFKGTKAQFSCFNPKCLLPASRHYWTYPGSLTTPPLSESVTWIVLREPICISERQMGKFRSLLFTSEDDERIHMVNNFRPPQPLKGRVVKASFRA
The target of a further series is hCA II (Homo sapiens, UniProt P00918). Description: CA inhibition assay, stopped-flow CO2 hydration.

Some results are limits rather than exact numbers.

Chain of hCA I (P00915 whole entry): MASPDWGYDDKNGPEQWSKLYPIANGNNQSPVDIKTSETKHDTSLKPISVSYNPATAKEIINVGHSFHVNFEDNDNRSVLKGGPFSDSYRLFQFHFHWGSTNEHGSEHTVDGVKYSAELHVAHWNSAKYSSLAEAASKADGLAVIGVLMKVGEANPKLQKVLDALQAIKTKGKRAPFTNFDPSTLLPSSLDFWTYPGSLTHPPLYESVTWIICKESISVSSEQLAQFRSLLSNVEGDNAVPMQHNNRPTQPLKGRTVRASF
From the text for hCA II: (§1) An SX.18 MV-R Applied Photophysics (Oxford, UK) stopped-flow instrument has been used to assay the catalytic/inhibition of various CA isozymes[51]. […] The inhibition constants were obtained by non-linear least-squares methods using the Cheng–Prusoff equation, as reported earlier[39] and represent the mean from at least three different determinations. All CA isozymes used here were recombinant proteins obtained as reported earlier by our group[27]^,[32]^,[40]^,[52].
From the text for hCA IX: as §1
From the text for hCA VII: as §1

Usually Ki stands for the equilibrium dissociation constant of an inhibitor or competing ligand from its target. High values mean lower affinity, low ones higher affinity. In general, melting point refers to the temperature of the solid-liquid transition. On to `O=C(NC(=S)NCCN1CCCC1)c1cc2ccccc2oc1=O` [e11, 2-oxo-N-((2-(pyrrolidin-1-yl)ethyl)carbamothioyl)-2H-chromene-3-carboxamide], for which the melting point fell in the range of 131 to 132 °C. Further, the Ki on hCA I is over 10 µM. The same compound displayed a Ki at hCA IX of 0.108 µM. For the same compound, the Ki on hCA VII is over 10 µM. Moreover, the Ki on hCA II was over 10 µM.
In the case of `O=C(NC(=S)NN1CCCCC1)c1cc2ccccc2oc1=O` [e18, 2-oxo-N-(piperidin-1-ylcarbamothioyl)-2H-chromene-3-carboxamide], the melting point stood at 206 °C. The Ki at hCA I was over 10 µM. This compound also gave an inhibition constant Ki at hCA IX of 0.387 µM. At hCA VII, this compound had a Ki of over 10 µM. This compound registered a Ki on hCA II of over 10 µM.
`O=C(NC(=S)N1CCCCC1)c1cc2ccccc2oc1=O` [e7, 2-oxo-N-(piperidine-1-carbonothioyl)-2H-chromene-3-carboxamide] displayed a melting point of 175 to 176 °C. The Ki on hCA I is over 10 µM. For the same compound, at hCA IX, the Ki stood at 0.202 µM. This compound registered a Ki on hCA VII of over 10 µM. In addition, the Ki at hCA II is over 10 µM.
Compound `CN1CCN(NC(=S)NC(=O)c2cc3ccccc3oc2=O)CC1` [e17, N-((4-methylpiperazin-1-yl)carbamothioyl)-2-oxo-2H-chromene-3-carboxamide] returned a melting point of 204 °C. On hCA I, this compound registered a Ki of over 10 µM. The same compound had a Ki on hCA IX of 0.259 µM. Also, the Ki on hCA VII is over 10 µM. Besides, on hCA II, the Ki was over 10 µM.
With `O=C(NC(=S)NCCN1CCOCC1)c1cc2ccccc2oc1=O` [e12, N-((2-morpholinoethyl)carbamothioyl)-2-oxo-2H-chromene-3-carboxamide], the melting point lay within 136 to 138 °C. This compound came in with a Ki on hCA I of over 10 µM. Further, the Ki on hCA IX was found to be 0.224 µM. In addition, the Ki at hCA VII was over 10 µM. In addition, on hCA II, the Ki was over 10 µM.
On to `O=C(NC(=S)NCCC1=CCCCC1)c1cc2ccccc2oc1=O` [e13, N-((2-(cyclohex-1-en-1-yl)ethyl)carbamothioyl)-2-oxo-2H-chromene-3-carboxamide], for which the melting point was in the range of 142 to 143 °C. The compound further showed an inhibition constant Ki on hCA I of over 10 µM. For the same compound, the Ki at hCA IX was 0.18 µM. For the same compound, on hCA VII, the inhibitory constant (Ki) was over 10 µM. Also, the Ki at hCA II is over 10 µM.
In turn, `O=C(NC(=S)NCCN1CCNCC1)c1cc2ccccc2oc1=O` [e19, 2-oxo-N-((2-(piperazin-1-yl)ethyl)carbamothioyl)-2H-chromene-3-carboxamide] had a melting point of 163 to 165 °C.
Compound `CCCNC(=S)NC(=O)c1cc2ccccc2oc1=O` [e2, 2-oxo-N-(propylcarbamothioyl)-2H-chromene-3-carboxamide] had a melting point of 123 °C. The Ki at hCA I is over 10 µM. On hCA IX, this compound gave a Ki of 0.286 µM. The compound also yielded a Ki at hCA VII of over 10 µM. The compound also had a Ki on hCA II of over 10 µM.
`O=C(NC(=S)NCc1ccc2c(c1)OCO2)c1cc2ccccc2oc1=O` [e15, N-((benzo[d][1,3]dioxol-5-ylmethyl)carbamothioyl)-2-oxo-2H-chromene-3-carboxamide] gave a melting point of 188 to 190 °C. This compound displayed an inhibition constant (Ki) at hCA I of over 10 µM. The compound further yielded a Ki at hCA IX of 0.184 µM. This compound gave an inhibition constant Ki at hCA VII of over 10 µM. Moreover, the Ki at hCA II is over 10 µM.
Take `CN(C)CCCNC(=S)NC(=O)c1cc2ccccc2oc1=O` [e20, N-((3-(dimethylamino)propyl)carbamothioyl)-2-oxo-2H-chromene-3-carboxamide]: the melting point is 100 °C. This compound displayed an inhibitory constant (Ki) at hCA I of over 10 µM. At hCA IX, this compound displayed an inhibition constant Ki of 0.182 µM. At hCA VII, this compound gave an inhibition constant (Ki) of over 10 µM. Further, the Ki on hCA II is over 10 µM.
Compound `CNC(=S)NC(=O)c1cc2ccccc2oc1=O` [e1, N-(methylcarbamothioyl)-2-oxo-2H-chromene-3-carboxamide] came in with a melting point of 146 to 148 °C. Besides, the Ki on hCA I is over 10 µM. At hCA IX, this compound had a Ki of 0.323 µM. For the same compound, the Ki on hCA VII is over 10 µM. This compound had a Ki on hCA II of over 10 µM.
Take `O=C(NC(=S)NN1CCOCC1)c1cc2ccccc2oc1=O` [e16, N-(morpholinocarbamothioyl)-2-oxo-2H-chromene-3-carboxamide]: the melting point fell in the range of 180 to 182 °C. Further, at hCA I, the inhibition constant Ki is over 10 µM. This compound also returned a Ki at hCA IX of 2.59 µM. The Ki on hCA VII was over 10 µM. Besides, the Ki at hCA II is over 10 µM.
Regarding `O=C(NC(=S)NC1Cc2ccccc2C1)c1cc2ccccc2oc1=O` [e10, N-((2,3-dihydro-1H-inden-2-yl)carbamothioyl)-2-oxo-2H-chromene-3-carboxamide], the Ki on hCA I was over 10 µM; on hCA IX it was 0.13 µM; on hCA VII it was over 10 µM; at hCA II, over 10 µM.
Take `CN1CCN(C(=S)NC(=O)c2cc3ccccc3oc2=O)CC1` [e8, N-(4-methylpiperazine-1-carbonothioyl)-2-oxo-2H-chromene-3-carboxamide]: the melting point lay within 162 to 164 °C. Besides, the Ki on hCA I is over 10 µM. Moreover, on hCA IX, affinity was put at a Ki of 0.128 µM. Moreover, the inhibitory constant (Ki) on hCA VII was over 10 µM. In addition, the Ki at hCA II is over 10 µM.
As for `CCN(CC)C(=S)NC(=O)c1cc2ccccc2oc1=O` [e3, N-(diethylcarbamothioyl)-2-oxo-2H-chromene-3-carboxamide], the melting point was found to be 143 °C. Further, the Ki on hCA I is over 10 µM. Further, the inhibition constant Ki at hCA IX was determined as 0.376 µM. Moreover, the Ki at hCA VII was over 10 µM. Further, the Ki at hCA II was over 10 µM.
On to `O=C(NC(=S)N1CCCC1)c1cc2ccccc2oc1=O` [e6, 2-oxo-N-(pyrrolidine-1-carbonothioyl)-2H-chromene-3-carboxamide], for which the melting point was in the range of 162 to 163 °C. The same compound gave a Ki at hCA I of over 10 µM. This compound yielded a Ki on hCA IX of 0.298 µM. At hCA VII, this compound displayed a Ki of over 10 µM. Besides, the Ki at hCA II was over 10 µM.
As to `O=C(NC(=S)NC1CCCCC1)c1cc2ccccc2oc1=O` [e5, N-(cyclohexylcarbamothioyl)-2-oxo-2H-chromene-3-carboxamide], the Ki at hCA I is over 10 µM; at hCA IX it was 0.115 µM; on hCA VII, over 10 µM; at hCA II, over 10 µM.
Turning to `O=C(NC(=S)N1CCOCC1)c1cc2ccccc2oc1=O` [e9, N-(morpholine-4-carbonothioyl)-2-oxo-2H-chromene-3-carboxamide], the melting point lay in the range of 123 to 125 °C. For the same compound, the Ki on hCA I is over 10 µM. The compound also yielded an inhibition constant (Ki) at hCA IX of 0.136 µM. In addition, the Ki at hCA VII was over 10 µM. The same compound had a Ki at hCA II of over 10 µM.
As for `CC(C)N(C(=S)NC(=O)c1cc2ccccc2oc1=O)C(C)C` [e4, N-(diisopropylcarbamothioyl)-2-oxo-2H-chromene-3-carboxamide], the melting point was 150 to 151 °C. On hCA I, this compound registered a Ki of over 10 µM. This compound also had a Ki at hCA IX of 0.351 µM. At hCA VII, this compound yielded a Ki of over 10 µM. The compound also displayed a Ki at hCA II of over 10 µM.
`COc1ccc(CCNC(=S)NC(=O)c2cc3ccccc3oc2=O)cc1OC` [e14, N-((3,4-dimethoxyphenethyl)carbamothioyl)-2-oxo-2H-chromene-3-carboxamide] gave a melting point of 148 to 149 °C. The compound further registered a Ki at hCA I of over 10 µM. At hCA IX, this compound displayed a Ki of 0.196 µM. The inhibition constant (Ki) on hCA VII is over 10 µM. Further, the Ki on hCA II was over 10 µM.
